We go through twelve compounds from patent publication US20140329858A1, “Cyclic Urea Derivatives As Androgen Receptor Antagonists” (priority 2011, published 2014).

Each structure is given as a SMILES string.

One assay relates to Vcap cells. Description: Dihydrotestosterone (DHT) mediated XTT cell proliferation assay for screening AR antagonists using Vcap cells. The assay is classed as cell-based. To be noted: Homo sapiens, 240 h, in the presence of 0.2 nM DHT, XTT readout on Day 10, IC50 curves from 8 concentrations. The procedure: Dihydrotestosterone (DHT) Mediated XTT Cell Proliferation Assay for Screening AR Antagonists Using Vcap cells
The Vcap cells (4×10^6 cells) were seeded in a T-75 flask containing DMEM with 15% FBS. After 72 hours, the media was removed; the cells were washed once and replaced with phenol red free DMEM containing 8% charcoal stripped serum. Then, the cells were starved in phenol red free DMEM with 8% charcoal stripped serum for 5 days. Following the starvation, the cells were harvested and seeded in 96 well plates (10×10^3 cells per well) in phenol red free DMEM with 8% charcoal stripped serum (Day 0). The cells were allowed to settle and on Day 4 they were treated with different concentrations of the compound (30 μM, 10 μM, 1 μM, 500 nM, 100 nM, 10 nM, 1 nM, 0.1 nM) in the presence of 0.2 nM DHT. DHT alone and a DMSO controls were also included. All treatments were done in triplicate. The drugs were replenished on Day 7 and the cells were allowed to grow for another 72 hours. On Day 10, the experiment was terminated by adding the XTT reagent (2,3-bis[2-methoxy-4-notro-5-sulfophenyl]-2H-tetrazolium-5-caboxyanilide inner salt) dissolved in Phenol red free DMEM without serum. The cells with the XTT reagents were incubated inside the CO2 incubator for 3-4 hours for color development; after which the readings were taken at […] using a spectramax Gemini plate reader.
Data fitting: The IC50 curves for the 8 compound concentrations were calculated with GraphPad Prism software using the sigmoidal dose-response function. (Graphpad Software, San Diego, Calif., USA).
Consider `N#Cc1ccc(N2C(=O)N(c3ccc(C(N)=O)c(F)c3)[C@@H]3CCOC[C@H]32)cc1C(F)(F)F` (racemic) [Example 76, Trans-4-(3-(4-cyano-3-(trifluoromethyl)phenyl)-2-oxohexahydropyrano[3,4-d]imidazol-1(6H)-yl)-2-fluorobenzamide (±)], for which the IC50 stood at 2540 nM.
The same measure, in the same setting: then `CC(C)CONC(=O)c1ccc(N2C(=O)N(c3ccc(C#N)c(C(F)(F)F)c3)[C@@H]3CCCC[C@H]32)cc1F` (racemic) [Example 22, Trans-4-(3-(4-cyano-3-(trifluoromethyl)phenyl)-2-oxooctahydro-1H-benzo[d]im-idazol-1-yl)-2-fluoro-N-isobutoxybenzamide (±)], with 196 nM; and `CNC(=O)c1ccc(N2C(=O)N(c3ccc(C#N)c(C(F)(F)F)c3)[C@@H]3CCC(O)C[C@H]32)cc1F` (mixture of isomers) [Example 82, Trans-4-(3-(4-cyano-3-(trifluoromethyl)phenyl)-6-hydroxy-2-oxooctahydro-1H-benzo[d]imidazol-1-yl)-2-fluoro-N-methylbenzamide (±)], with 583 nM.
Still for that read-out and setting: then `N#Cc1ccc(N2C(=O)N(c3cccnc3F)[C@@H]3CCCC[C@H]32)cc1C(F)(F)F` (racemic) [Example 59, Trans-4-(3-(2-fluoropyridin-3-yl)-2-oxooctahydro-1H-benzo[d]imidazol-1-yl)-2-(trifluoromethyl)benzonitrile (±)], with 1080 nM; and `CC(=O)Nc1ccc(N2C(=O)N(c3ccc(C#N)c(C(F)(F)F)c3)[C@@H]3CCCC[C@H]32)cc1F` (racemic) [Example 12], with 533 nM; and `N#Cc1ccc(N2C(=O)N(c3ccc(C(=O)NCCO)c(F)c3)[C@@H]3CCCC[C@H]32)cc1C(F)(F)F` (racemic) [Example 32, Trans 4-(3-(4-cyano-3-(trifluoromethyl)phenyl)-2-oxooctahydro-1H-benzo[d]im-idazol-1-yl)-2-fluoro-N-(2-hydroxyethyl)benzamide (±)], with 377 nM.
For `N#Cc1ccc(N2C(=O)N(c3ccc(N)c(F)c3)[C@@H]3CCCC[C@H]32)cc1C(F)(F)F` (racemic) [Example 15, Trans-(4-(-3-(4-amino-3-fluorophenyl)-2-oxooctahydro-1H-benzo[d]imidazol-1-yl)-2-(trifluoromethyl)benzonitrile (±)], the IC50 came to 823 nM.
Consider `CN(C)CCCONC(=O)c1ccc(N2C(=O)N(c3ccc(C#N)c(C(F)(F)F)c3)[C@@H]3CCCC[C@H]32)cc1F` (racemic) [Example 25, Trans 4-(3-(4-cyano-3-(trifluoromethyl)phenyl)-2-oxooctahydro-1H-benzo[d]im-idazol-1-yl)-N-(3-(dimethylamino)propoxy)-2-fluorobenzamide (±)], for which the IC50 is 42.4 nM.

The same assay, now with this note: in the presence of 0.2 nM DHT, XTT readout on Day 10, IC50 curves from 8 concentrations.
With `CNC(=O)c1ccc(N2C(=O)N(c3ccc(C#N)c(C(F)(F)F)c3)[C@@H]3CC=CC[C@H]32)cc1F` (relative stereo) [Example 83b], the concentration for half-maximal inhibition (IC50) was determined as 31.9 nM.
Regarding `CNC(=O)c1ccc(N2C(=O)N(c3ccc(C#N)c(C(F)(F)F)c3)[C@@H]3CCCC[C@H]32)cc1F` (relative stereo) [Example 1a, Trans-4-{3-[4-cyano-3-(trifluoromethyl)phenyl]-2-oxo-octahydro-1H-1,3-benzodiazol-1-yl}-2-fluoro-N-Methylbenzamide (+)], the IC50 is greater than 10000 nM.
On the same count and under the same terms, then `N#Cc1ccc(N2C(=O)N(c3ccnc(F)c3)[C@@H]3CCCC[C@H]32)cc1C(F)(F)F` (relative stereo) [Example 10b, Trans-4-(3-(2-fluoropyridin-4-yl)-2-oxooctahydro-1H-benzo[d]imidazol-1-yl)-2-(trifluoromethyl)benzonitrile (−)], with 280 nM; and `CNC(=O)c1ccc(N2C(=O)N(c3ccc(C#N)c(C(F)(F)F)c3)[C@@H]3CCCCC[C@H]32)cc1F` (relative stereo) [Example 80a, Trans-4-(3-(4-cyano-3-(trifluoromethyl)phenyl)-2-oxooctahydrocyclohepta[d]imidazol-1(2H)-yl)-2-fluoro-N-methylbenzamide (−)], with 93.7 nM.
